Data from the supplement of paper PMC11665569.

What was measured:
Assay in all cases: relative viability (fraction of vehicle control); higher = more viable / less inhibited
Conditions in all cases: treatment time: 5 days
MIAPACA2 = tested on: MIAPACA2
Method: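 CCK-8 viability of MIAPACA2 cells with empty vector or constitutively active YAP S127A, treated with KRAS G12C inhibitors for 5 days, normalised to vehicle control.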

KYSE410 = tested on: KYSE410
Method: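 CCK-8 viability of KYSE410 cells transfected with control, YAP/TAZ or TEAD1-4 siRNAs and treated with KRAS G12C inhibitors for 5 days. Values are normalised to vehicle control.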

H2030 = tested on: H2030
Method: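 CCK-8 viability of H2030 cells transfected with control, YAP/TAZ or TEAD1-4 siRNAs and treated with KRAS G12C inhibitors for 5 days. Values are normalised to vehicle control.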

H358 = tested on: H358
Method: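 CCK-8 viability of H358 cells with empty vector or constitutively active YAP S127A, treated with KRAS G12C inhibitors for 5 days. Absorbance at 450 nm normalised to vehicle control.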

C=CC(=O)N1CCN(c2ncnc3c(F)c(-c4c(O)cccc4F)c(Cl)cc23)CC1 [ARS1620]
relative viability
Conditions	H358	H2030	KYSE410	MIAPACA2
log10 concentration (uM): 0, ectopic expression: YAP S127A	0.842	–	–	1.05
log10 concentration (uM): 0, ectopic expression: empty vector (YAP experiment)	0.6	–	–	1.01
log10 concentration (uM): 0, siRNA knockdown: TEAD1-4 siRNA 1	–	0.502	0.606	–
log10 concentration (uM): 0, siRNA knockdown: TEAD1-4 siRNA 2	–	0.522	0.433	–
log10 concentration (uM): 0, siRNA knockdown: YAP/TAZ siRNA 1	–	0.521	0.792	–
log10 concentration (uM): 0, siRNA knockdown: YAP/TAZ siRNA 2	–	0.482	0.59	–
log10 concentration (uM): 0, siRNA knockdown: negative control siRNA	–	0.948	0.869	–
log10 concentration (uM): 0.39794, ectopic expression: YAP S127A	0.833	–	–	0.984
log10 concentration (uM): 0.39794, ectopic expression: empty vector (YAP experiment)	0.389	–	–	0.743
log10 concentration (uM): 0.39794, siRNA knockdown: TEAD1-4 siRNA 1	–	0.429	0.338	–
log10 concentration (uM): 0.39794, siRNA knockdown: TEAD1-4 siRNA 2	–	0.365	0.315	–
log10 concentration (uM): 0.39794, siRNA knockdown: YAP/TAZ siRNA 1	–	0.499	0.438	–
log10 concentration (uM): 0.39794, siRNA knockdown: YAP/TAZ siRNA 2	–	0.448	0.428	–
log10 concentration (uM): 0.39794, siRNA knockdown: negative control siRNA	–	0.927	0.754	–
log10 concentration (uM): 0.69897, ectopic expression: YAP S127A	0.617	–	–	0.977
log10 concentration (uM): 0.69897, ectopic expression: empty vector (YAP experiment)	0.306	–	–	0.542
log10 concentration (uM): 0.69897, siRNA knockdown: TEAD1-4 siRNA 1	–	0.257	0.25	–
log10 concentration (uM): 0.69897, siRNA knockdown: TEAD1-4 siRNA 2	–	0.256	0.194	–
log10 concentration (uM): 0.69897, siRNA knockdown: YAP/TAZ siRNA 1	–	0.369	0.3	–
log10 concentration (uM): 0.69897, siRNA knockdown: YAP/TAZ siRNA 2	–	0.386	0.288	–
log10 concentration (uM): 0.69897, siRNA knockdown: negative control siRNA	–	0.874	0.556	–
log10 concentration (uM): 1, ectopic expression: YAP S127A	0.558	–	–	0.913
log10 concentration (uM): 1, ectopic expression: empty vector (YAP experiment)	0.217	–	–	0.25
log10 concentration (uM): 1, siRNA knockdown: TEAD1-4 siRNA 1	–	0.151	0.106	–
log10 concentration (uM): 1, siRNA knockdown: TEAD1-4 siRNA 2	–	0.168	0.0618	–
log10 concentration (uM): 1, siRNA knockdown: YAP/TAZ siRNA 1	–	0.216	0.123	–
log10 concentration (uM): 1, siRNA knockdown: YAP/TAZ siRNA 2	–	0.261	0.104	–
log10 concentration (uM): 1, siRNA knockdown: negative control siRNA	–	0.742	0.198	–
log10 concentration (uM): 1.301029996, ectopic expression: YAP S127A	0.383	–	–	0.315
log10 concentration (uM): 1.301029996, ectopic expression: empty vector (YAP experiment)	0.128	–	–	0.0583
log10 concentration (uM): 1.301029996, siRNA knockdown: TEAD1-4 siRNA 1	–	0.0456	0.0328	–
log10 concentration (uM): 1.301029996, siRNA knockdown: TEAD1-4 siRNA 2	–	0.0819	0.0272	–
log10 concentration (uM): 1.301029996, siRNA knockdown: YAP/TAZ siRNA 1	–	0.114	0.0271	–
log10 concentration (uM): 1.301029996, siRNA knockdown: YAP/TAZ siRNA 2	–	0.14	0.0298	–
log10 concentration (uM): 1.301029996, siRNA knockdown: negative control siRNA	–	0.217	0.0407	–
log10 concentration (uM): -0.30103, ectopic expression: YAP S127A	0.942	–	–	0.946
log10 concentration (uM): -0.30103, ectopic expression: empty vector (YAP experiment)	0.711	–	–	0.996
log10 concentration (uM): -0.30103, siRNA knockdown: TEAD1-4 siRNA 1	–	0.562	0.826	–
log10 concentration (uM): -0.30103, siRNA knockdown: TEAD1-4 siRNA 2	–	0.478	0.769	–
log10 concentration (uM): -0.30103, siRNA knockdown: YAP/TAZ siRNA 1	–	0.627	0.897	–
log10 concentration (uM): -0.30103, siRNA knockdown: YAP/TAZ siRNA 2	–	0.641	0.7891	–
log10 concentration (uM): -0.30103, siRNA knockdown: negative control siRNA	–	0.985	0.938	–
log10 concentration (uM): -0.60206, ectopic expression: YAP S127A	0.958	–	–	0.915
log10 concentration (uM): -0.60206, ectopic expression: empty vector (YAP experiment)	0.806	–	–	0.98
log10 concentration (uM): -0.60206, siRNA knockdown: TEAD1-4 siRNA 1	–	0.646	0.943	–
log10 concentration (uM): -0.60206, siRNA knockdown: TEAD1-4 siRNA 2	–	0.616	0.725	–
log10 concentration (uM): -0.60206, siRNA knockdown: YAP/TAZ siRNA 1	–	0.695	0.964	–
log10 concentration (uM): -0.60206, siRNA knockdown: YAP/TAZ siRNA 2	–	0.731	0.86	–
log10 concentration (uM): -0.60206, siRNA knockdown: negative control siRNA	–	0.992	0.916	–
log10 concentration (uM): -1, ectopic expression: YAP S127A	0.808	–	–	0.969
log10 concentration (uM): -1, ectopic expression: empty vector (YAP experiment)	0.883	–	–	1.05
log10 concentration (uM): -1, siRNA knockdown: TEAD1-4 siRNA 1	–	0.742	0.909	–
log10 concentration (uM): -1, siRNA knockdown: TEAD1-4 siRNA 2	–	0.639	0.779	–
log10 concentration (uM): -1, siRNA knockdown: YAP/TAZ siRNA 1	–	0.753	0.959	–
log10 concentration (uM): -1, siRNA knockdown: YAP/TAZ siRNA 2	–	0.78	0.883	–
log10 concentration (uM): -1, siRNA knockdown: negative control siRNA	–	0.997	0.976	–
log10 concentration (uM): -2, ectopic expression: YAP S127A	0.792	–	–	0.992
log10 concentration (uM): -2, ectopic expression: empty vector (YAP experiment)	0.75	–	–	0.994
log10 concentration (uM): -2, siRNA knockdown: TEAD1-4 siRNA 1	–	0.922	0.981	–
log10 concentration (uM): -2, siRNA knockdown: TEAD1-4 siRNA 2	–	1.12	0.876	–
log10 concentration (uM): -2, siRNA knockdown: YAP/TAZ siRNA 1	–	0.976	0.988	–
log10 concentration (uM): -2, siRNA knockdown: YAP/TAZ siRNA 2	–	0.922	0.996	–
log10 concentration (uM): -2, siRNA knockdown: negative control siRNA	–	1.02	0.9803	–
